SMILES strings stand for the structures. Read-outs that look alike come from different tables or passages of the source.

What is called viability is a read-out of living cells in per cent, often relative to untreated cells.

Data set [1] has as its target T1, BSA (Bos taurus, UniProt P02769).
T1 construct: gene ALB
More on the design: Intact protein LC/MS covalent labelling, fragments in pools of five, 200 uM each, 4 °C. Conditions: 24 h, 4 °C, pool of five; 200 µM; covalent.

For data set [2], the target named is T2, NUDT7 (Homo sapiens, UniProt P0C024).
T2 construct: residues 14-235, E. coli, pNIC28-Bsa4, N-terminal His6 tag removed by TEV, construct 26672 Da
T2 sequence (P0C024 14-235): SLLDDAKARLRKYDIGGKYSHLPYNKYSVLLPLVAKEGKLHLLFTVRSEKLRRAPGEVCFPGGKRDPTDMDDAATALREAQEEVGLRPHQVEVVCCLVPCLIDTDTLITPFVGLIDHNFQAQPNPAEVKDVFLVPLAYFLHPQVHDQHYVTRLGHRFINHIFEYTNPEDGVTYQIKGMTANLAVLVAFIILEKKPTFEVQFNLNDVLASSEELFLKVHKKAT
The arrangement: Intact protein LC/MS covalent labelling, fragments in pools of five, 200 uM each, 4 °C. Conditions: 24 h, 4 °C, pool of five; 200 µM; covalent.

The target of data set [3] is T3, OTUB2 (OTUB2A) (Homo sapiens, UniProt Q96DC9).
T3 construct: full length residues 1-234, E. coli BL21(DE3)-R3, His tag removed by TEV, construct 27312 Da
T3 sequence (Q96DC9 1-234): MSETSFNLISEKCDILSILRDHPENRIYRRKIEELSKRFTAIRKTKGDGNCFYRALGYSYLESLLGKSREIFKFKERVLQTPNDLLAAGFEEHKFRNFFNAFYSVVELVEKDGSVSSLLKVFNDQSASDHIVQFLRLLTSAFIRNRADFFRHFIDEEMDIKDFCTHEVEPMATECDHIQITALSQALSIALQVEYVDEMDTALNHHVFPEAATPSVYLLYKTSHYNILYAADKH
The arrangement: Intact protein LC/MS covalent labelling, fragments in pools of five, 200 uM each, 4 °C. Conditions: 24 h, 4 °C, pool of five; 200 µM; covalent.

In data set [4] the target is T4, PCAF (Homo sapiens, UniProt Q92831).
T4 construct: gene KAT2B
T4 sequence (Q92831 whole entry): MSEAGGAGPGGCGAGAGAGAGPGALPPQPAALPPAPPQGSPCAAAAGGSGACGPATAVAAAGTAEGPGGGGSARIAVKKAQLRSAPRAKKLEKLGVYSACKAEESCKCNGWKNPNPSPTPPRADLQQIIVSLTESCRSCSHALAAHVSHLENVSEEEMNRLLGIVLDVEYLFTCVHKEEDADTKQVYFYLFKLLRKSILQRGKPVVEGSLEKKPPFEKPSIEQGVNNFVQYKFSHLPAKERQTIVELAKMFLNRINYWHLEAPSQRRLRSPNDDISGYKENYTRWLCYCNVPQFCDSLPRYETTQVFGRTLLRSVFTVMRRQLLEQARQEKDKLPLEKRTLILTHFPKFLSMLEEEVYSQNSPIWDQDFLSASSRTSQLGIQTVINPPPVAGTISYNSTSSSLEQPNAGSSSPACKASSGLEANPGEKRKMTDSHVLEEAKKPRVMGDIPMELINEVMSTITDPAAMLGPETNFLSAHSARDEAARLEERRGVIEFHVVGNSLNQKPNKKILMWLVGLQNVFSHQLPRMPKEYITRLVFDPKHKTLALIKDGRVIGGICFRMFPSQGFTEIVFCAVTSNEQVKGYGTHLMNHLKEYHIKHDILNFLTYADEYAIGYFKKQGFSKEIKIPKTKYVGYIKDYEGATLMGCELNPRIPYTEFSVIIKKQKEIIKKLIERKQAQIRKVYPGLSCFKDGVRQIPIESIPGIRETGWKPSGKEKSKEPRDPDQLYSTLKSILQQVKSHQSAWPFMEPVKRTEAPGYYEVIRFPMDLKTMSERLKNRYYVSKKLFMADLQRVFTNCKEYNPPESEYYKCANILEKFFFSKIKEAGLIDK
More on the design: Intact protein LC/MS covalent labelling, fragments in pools of five, 200 uM each, 4 °C. The note with it: 24 h, 4 °C, pool of five; 200 µM; covalent.

Data set [5] in a line: in vitro. The note with it: human, hb2 cells, read-out: HB-2 Cells Viability (%). The arrangement: species or system CCD841, HEK293.
Data set [6] is described as follows: in vitro. More on the design: species or system HB2, HEK293. The note with it: human, ccd841 cells.
Data set [7] in a line: in vitro. Conditions: human, hek293 cells. The arrangement: species or system HB2, CCD841.

T1 sequence (P02769 whole entry): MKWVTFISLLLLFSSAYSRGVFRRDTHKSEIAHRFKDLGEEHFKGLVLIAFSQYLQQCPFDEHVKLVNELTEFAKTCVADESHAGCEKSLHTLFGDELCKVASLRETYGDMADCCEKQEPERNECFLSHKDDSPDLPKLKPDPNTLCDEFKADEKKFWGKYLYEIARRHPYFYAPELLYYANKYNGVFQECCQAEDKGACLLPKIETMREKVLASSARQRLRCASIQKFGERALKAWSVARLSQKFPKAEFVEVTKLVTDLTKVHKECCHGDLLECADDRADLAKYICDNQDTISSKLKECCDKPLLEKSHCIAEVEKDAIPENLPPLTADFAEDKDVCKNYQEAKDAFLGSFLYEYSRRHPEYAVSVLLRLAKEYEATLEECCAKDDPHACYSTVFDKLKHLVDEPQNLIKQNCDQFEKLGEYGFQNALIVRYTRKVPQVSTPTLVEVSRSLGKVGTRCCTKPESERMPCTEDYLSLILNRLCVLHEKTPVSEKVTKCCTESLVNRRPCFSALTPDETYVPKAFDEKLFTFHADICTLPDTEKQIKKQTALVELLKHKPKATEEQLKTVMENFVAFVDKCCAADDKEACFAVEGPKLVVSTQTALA

In data set [1], `O=C(CCl)NNC(=O)c1cccc(Cl)c1` [PCM-0102470] displayed a BSA of 0. This compound also displayed an NUDT7 in data set [2] of 0. The OTUB2 in data set [3] is 0.38. In addition, the PCAF in data set [4] is 0. For the same compound, the viability at 48 h, 10 µM in data set [5] was determined as 84.7%; in data set [6], 81.3%; in data set [7], 94.8%.
In data set [1], `N#Cc1c2c(n(-c3ccccc3)c1NC(=O)CCl)CCCC2` [PCM-0102107] displayed a BSA of 0. This compound also had an NUDT7 in data set [2] of 0.46. For the same compound, in data set [3], the OTUB2 is given as 0.08. The compound also showed a PCAF in data set [4] of 0. Also, the viability at 48 h, 10 µM in data set [5] is 18%; in data set [6], 53.9%; in data set [7] it was 7.6%.
Consider `C=CC(=O)NC(O)C(Cl)(Cl)Cl` (centres unmarked) [PCM-0102963], for which the BSA in data set [1] is recorded as 0. This compound gave an NUDT7 in data set [2] of 0. In addition, the OTUB2 in data set [3] amounted to 0. Further, in data set [4], the PCAF was determined as 0. Further, the viability at 48 h, 10 µM was 102% in data set [5], 89.7% in data set [6] and 94.7% in data set [7].
In the case of `C=CC(=O)NC1CCCc2cnn(C(C)C)c21` (centres unmarked) [PCM-0102583], the BSA in data set [1] amounted to 0. For the same compound, in data set [2], the NUDT7 is on record as 0. In addition, in data set [3], the OTUB2 amounted to 0. Also, the PCAF in data set [4] worked out at 0. Besides, the viability at 48 h, 10 µM in data set [5] came to 105%; in data set [6], 120%; in data set [7], 96.8%.
`NS(=O)(=O)c1ccc(Cl)c(NC(=O)CCl)c1` [PCM-0103012] came in with a BSA in data set [1] of 0. For the same compound, in data set [2], the NUDT7 is given as 0. The compound also yielded an OTUB2 in data set [3] of 0.1. In addition, the PCAF in data set [4] is recorded as 0. Besides, the results for the viability at 48 h, 10 µM in data set [5], in data set [6] and in data set [7] were 54.7%, 67.1% and 11.9%, respectively.
With `Cl.O=C(CCl)N1CCN(Cc2c(F)cccc2Cl)CC1` [PCM-0102137], in data set [1], the BSA was found to be 0. In data set [2], this compound showed an NUDT7 of 0. Further, the OTUB2 in data set [3] was determined as 0. In addition, in data set [4], the PCAF came to 0. Further, the values for the viability at 48 h, 10 µM in data set [5], in data set [6] and in data set [7] were 20.8%, 59.5% and 25.8%, respectively.
`O=C(CCl)Nc1cc(C(F)(F)F)ccc1N1CCCC1` [PCM-0102321] returned a BSA in data set [1] of 0. The compound further registered an NUDT7 in data set [2] of 0. The compound further showed an OTUB2 in data set [3] of 0. In addition, the PCAF in data set [4] is 0. Moreover, the viability at 48 h, 10 µM in data set [5] worked out at 104%; in data set [6], 116%; in data set [7] it was 110%.
As for `CS(C)(=O)=NC(=O)CCl` [PCM-0102969], the BSA in data set [1] amounted to 0. In data set [2], the NUDT7 worked out at 0. Also, the OTUB2 in data set [3] is given as 0. Moreover, the PCAF in data set [4] was 0. Moreover, the viability at 48 h, 10 µM came to 96.1% in data set [5], 97.5% in data set [6] and 102% in data set [7].
Turning to `O=C(CCl)Nc1ccccc1Br` [PCM-0102312], the BSA in data set [1] came out at 0. In data set [2], this compound registered an NUDT7 of 0.15. The OTUB2 in data set [3] came to 0. Moreover, the PCAF in data set [4] was found to be 0. For the same compound, the viability at 48 h, 10 µM in data set [5] worked out at 90.8%; in data set [6], 89.7%; in data set [7], 92.9%.
`C=CC(=O)N1CCn2c(cc3ccccc32)C1` [PCM-0102621] showed a BSA in data set [1] of 0. In data set [2], the NUDT7 worked out at 0. In data set [3], this compound displayed an OTUB2 of 0. In addition, the PCAF in data set [4] came out at 0. Further, the viability at 48 h, 10 µM in data set [5] was 106%; in data set [6], 114%; in data set [7] it was 85.7%.
`Cc1ccc(CN(C)C(=O)CCl)c(C)c1` [PCM-0102552] came in with a BSA in data set [1] of 0. In addition, the NUDT7 in data set [2] is 0.19. The OTUB2 in data set [3] is reported as 0. The compound also came in with a PCAF in data set [4] of 0. Moreover, the viability at 48 h, 10 µM in data set [5] was 54.5%; in data set [6], 69.9%; in data set [7], 62.6%.
